These results are taken from ChEMBL document CHEMBL1157539, “Thousands of chemical starting points for antimalarial lead identification” (Nature, 2010).

Structures are written as SMILES.

This experiment has as its system Plasmodium falciparum. In words: GSK_TCMDC: Inhibition of Plasmodium falciparum 3D7 in whole erythrocytes, using parasite LDH activity as an index of growth. It counts as functional, organism-based. The note with it: Plasmodium falciparum, 3D7.
In the case of `O=C(N/C(=C/c1cccc([N+](=O)[O-])c1)c1nc2ccccc2[nH]1)c1cccc(Br)c1`, the XC50 was determined as 616 nM.
In the case of `CC(C)CCN(Cc1cncn1Cc1cccc(Cl)c1)C(=O)c1cncc(-c2ccccc2)c1`, the XC50 was found to be 762 nM.
`CCOC(=O)c1cc(C(=O)NCCCCN2CCC(c3ccc(CC)cc3OCC)CC2)ccc1-c1ccc(C(F)(F)F)cc1` came in with an XC50 of 615 nM.
The compound `COc1ccc2ncc(F)c(CCN3CC(O)C(CNCc4ccc5c(c4)OCCO5)C3)c2n1` (centres undefined) yielded an XC50 of 927 nM.
Compound `O=C(/C=C/c1ccc(Cl)c(Cl)c1)N1CCC(CN2CCC(c3c(-c4ccccc4)[nH]c4ccccc34)CC2)CC1` returned an XC50 of 335 nM.
With `CCc1ccc(O)c(-c2cc(C(=O)Nc3ccc(OC)c(Cl)c3)[nH]n2)c1`, the XC50 turned out to be 870 nM.
Compound `Cc1ccc(NC(=O)NC2CCN(CCCCCNC(=O)/C=C/c3ccc(Cl)c(Cl)c3)CC2)cc1` gave an XC50 of 694 nM.
In turn, `O=C(NCCN1Cc2ccccc2C1=O)c1ccc(Oc2ccc(C(=O)NCCN3Cc4ccccc4C3=O)cc2)cc1` displayed an XC50 of 361 nM.
`CCN(Cc1ccc(-c2ccc(C(F)(F)F)cc2)cc1)C(=O)Cn1c(SCc2cccc(F)c2F)cc(=O)c2cc(CN3CCCCC3)ccc21` registered an XC50 of 801 nM.
Take `O=C(N[C@@H](Cc1ccccc1)[C@H](O)CNC1CCc2ccccc2C1)c1cc(C2CCCC2)cc(N2CCCC2=O)c1` (some centres undefined): the XC50 turned out to be 161 nM.
The compound `CCCCNCc1ccc(-c2nc(CN(C(=O)Nc3cc([N+](=O)[O-])ccc3F)C3Cc4ccccc4C3)cs2)cc1` came in with an XC50 of 1100 nM.
Compound `Cc1nnsc1C(=O)Nc1ccc(-c2ccc(-c3nc4ccccc4[nH]3)s2)cc1` registered an XC50 of 825 nM.
In the case of `Cc1nc(C)c(CC(=O)Nc2ccc(-c3ccc(-c4nc5cc(C(F)(F)F)ccc5[nH]4)s3)cc2)s1`, the XC50 was determined as 1030 nM.
Consider `N#Cc1ccc(CCNc2nccc(-c3cccc(CN4CCNCC4)c3)n2)cc1`, for which the XC50 worked out at 1250 nM.
With `CCC(c1ccccc1)c1nn2c(-c3cccs3)nnc2s1` (centres undefined), the XC50 came out at 167 nM.
`COc1ccc2nccc([C@@H](O)CN3CCC(NCCOc4ccc(F)cc4F)CC3)c2c1` showed an XC50 of 141 nM.
In turn, `O=C(N[C@@H](Cc1ccccc1)C(=O)NC1CCCc2ccccc21)c1ccc(O)c(-c2cccc(C(F)(F)F)c2)c1` (some centres undefined) returned an XC50 of 1000 nM.
The same measure for `C=C[C@H]1CN2CC[C@H]1C[C@H]2[C@H](O)c1cc(/C=C/c2ccc(F)cc2)nc2ccc(OC)cc12`: 34.2 nM; for `N=C(N)Nc1nc(-c2cccc(NCCCCCCCCON3C(N)=NC(N)=NC34CCCCC4)c2)cs1`: 226 nM.
The same measure for `O=C(Nc1cccc(OC2CCN(Cc3ccccc3)CC2)c1)c1ccc(Cl)c(Cl)c1`: 716 nM.
For the compound `COc1c(C2CCN(CCCCNC(=O)c3cc(-c4ccc(Cl)cc4)sc3C)CC2)ccc2c1CCCC2`, the XC50 is 629 nM.
In turn, `Cc1cccc(-c2cccc(CNc3nc(NCCc4ccc(O)cc4)nc(N4CCNCC4)n3)c2)c1` gave an XC50 of 1190 nM.
`O=C(/C=C/c1ccc(Cl)c(Cl)c1)NCCCCCN1CCCN(C(=O)Nc2cccc(C(F)(F)F)c2)CC1` registered an XC50 of 866 nM.
With `CCCCCC(C)C(C)c1cc(O)c2c(c1)OC(C)(C)C=C2c1cc[n+]([O-])cc1` (centres undefined), the XC50 worked out at 1190 nM.
As for `CC(C)COc1ccc(Cl)cc1Cc1ccc(-c2nc3ccc(Br)cc3[nH]2)o1`, the XC50 was 1400 nM.
The compound `CS(=O)(=O)c1ccc(CCNCc2ccc(-c3ccc(CNC4CCN(Cc5ccccc5)CC4)cc3)nc2)cc1` displayed an XC50 of 249 nM.
For the compound `CCNc1cc(C(=O)N[C@@H](Cc2ccco2)[C@H](O)CNC2CCCCC2)cc(N2CCCCS2(=O)=O)c1`, the XC50 was found to be 1010 nM.
Compound `COc1ccc2nccc([C@@H](O)CN3CCC(NCc4cc5cc(OC(F)(F)F)ccc5[nH]4)CC3)c2c1` gave an XC50 of 127 nM.
As for `CCNC(=O)Nc1ccc(-c2cnc(N)c(-c3nc4ccc(OC)cc4[nH]3)c2)cc1`, the XC50 was 499 nM.
Take `Cc1ccccc1C1CCN(C2CCC(NC(=O)/C=C/c3cccc(F)c3F)CC2)CC1` (centres undefined): the XC50 turned out to be 1150 nM.
In turn, `OCCCCCCNc1ccnc2[nH]c3ccc(I)cc3c12` came in with an XC50 of 1070 nM.
The compound `Cc1cc(=O)c2cc(Oc3ccc(OC(F)(F)F)cc3)ccc2[nH]1` displayed an XC50 of 990 nM.
For `Cc1ccccc1C(=O)NC(NC(=S)Nc1ccc([N+](=O)[O-])cc1)C(Cl)(Cl)Cl` (centres undefined), the XC50 came to 745 nM.
Regarding `O=C(Nc1ccc2c(c1)CCC2)c1ccc(N2CCN(c3ccncc3)CC2)cc1`, the XC50 is 1130 nM.
As for `CC(Oc1c(C2CCN(CCCCNC(=O)c3ccc(-c4ccc(C#N)cc4)cc3)CC2)ccc2c1CCCC2)C(N)=O` (centres undefined), the XC50 was found to be 678 nM.
Compound `c1cc(CNc2ncc(-c3ccsc3)c(-c3nccs3)n2)ccn1` returned an XC50 of 358 nM.
For `CCOc1cc(CC)ccc1C1CCN(CCCCNC(=O)c2ccc(NC(=O)c3ccc(Cl)cc3)cc2)CC1`, the XC50 is 743 nM.
In turn, `Cc1cc(Nc2ccc(C)c(Cl)c2)n2nc(C(F)(F)F)nc2n1` came in with an XC50 of 15.8 nM.
Consider `Cc1cc2ccccc2c(CON2C(=N)N=C(N)NC2(C)C)c1C`, for which the XC50 stood at 9.5 nM.
In the case of `COc1ccc(CC(=O)NC(CCCN2CCC3(CC2)OCc2ccccc23)c2ccc(Cl)c(Cl)c2)cc1` (centres undefined), the XC50 turned out to be 1130 nM.
`CN(C)CCN1CCN(CCCN2c3ccccc3Sc3ccc(C(F)(F)F)cc32)CC1` showed an XC50 of 762 nM.
With `O=C(Nc1ccc(S(=O)(=O)N2CCCCCC2)cc1)c1cc(-c2ccccc2O)n[nH]1`, the XC50 was found to be 717 nM.
Compound `COc1ccc(-n2nc(C(=O)NCc3ccccc3OC)c3ccccc3c2=O)cc1` returned an XC50 of 217 nM.
As for `CCC1N=C(N)N=C(N)N1OCCCOc1c(Cl)cc(Cl)cc1Cl` (centres undefined), the XC50 was determined as 3.2 nM.
The compound `COc1ccc(NC(=O)[C@H](Cc2ccccc2)Nc2cc(C)nc(NCCc3ccccc3)n2)cc1` registered an XC50 of 1240 nM.
Regarding `CCCCN(C(=O)c1ccccc1Cl)c1nnc(-c2ccccc2C)s1`, the XC50 worked out at 1020 nM.
The same measure for `O=c1cc(NCCCNCc2[nH]c3cc(Cl)cc(Cl)c3c2Cn2cccn2)[nH]c2ccccc12`: 972 nM; for `OC1CCCN(Cc2ccc(-c3ccc(-c4nc5cc(F)ccc5[nH]4)s3)cc2)C1` (centres undefined): 851 nM; for `O=C(Nc1ccc2c(c1)CCN2C1CCN(Cc2ccc(C(F)(F)F)cc2F)C1)c1ccco1` (centres undefined): 510 nM.
The result for `CC(C)Cn1cc(C2CCN(CCN3CCC(CNC(=O)c4ccc(-c5ccc(C(F)(F)F)cc5)cc4)CC3)CC2)c2ccccc21` reads 753 nM; that for `CCOc1ccccc1CCNC(C)Cc1ccc(C(=O)Nc2ccc(CC(C)NCCc3cccc(Cl)c3)cc2)cc1` (centres undefined), 539 nM.
The same measure for `COc1ccc(-c2ccc(S(=O)(=O)Nc3cc4c(cc3OC(C)C)CCN(C)CC4)cc2)cc1`: 686 nM.
In turn, `COc1ccc(-c2cccc(NC(=O)c3ccc(C#N)cc3)c2)cc1CN(C)CCN(C)C` yielded an XC50 of 74.7 nM.
Turning to `O=C(c1c(-c2[nH]c3ccccc3c2C(=O)C(F)(F)F)[nH]c2ccccc12)C(F)(F)F`, the XC50 came out at 746 nM.
`CCN(CCS(C)(=O)=O)Cc1ccc(-c2ccc3ncnc(Nc4ccc(OCc5cccc(F)c5)c(Cl)c4)c3c2)o1` came in with an XC50 of 608 nM.
Compound `c1nc2nc3c(c(Nc4ccc5c(c4)CCC5)n2n1)CCC3` came in with an XC50 of 917 nM.
For `CC(CO)(CO)NCc1cc2c3ccccc3c(CNC(C)(CO)CO)cc2c2ccccc12`, the XC50 is 723 nM.
Compound `Oc1ccc(CCNc2nc(N/N=C/C=C/c3ccc(Cl)cc3)nc(N3CCNCC3)n2)cc1` gave an XC50 of 779 nM.
On to `Cc1cc(-c2cccc3c(C(=O)N4CCc5cc6nccc(N7CCCN(C)CC7)c6cc54)cccc23)cc(C)n1`, for which the XC50 is 437 nM.
The same measure for `CCN(CCCN1CCCCC1)c1cc(C)nc(Nc2ccc(C(F)(F)F)cc2)n1`: 374 nM; for `CC(C)Cn1c2ccccc2c2nc3nc(N)nc(N)c3nc21`: 725 nM; for `Cc1cc(-c2ccc(NC(=O)N3CCc4cc(Br)c(N5CCN(C)CC5)cc43)cc2)ccc1C#N`: 883 nM.
In turn, `CN1CCN(c2cc(-c3ccncc3)nc(-c3cccnc3)n2)CC1` returned an XC50 of 809 nM.
On to `COc1ccc2nc(Nc3nc(-c4ccccn4)cs3)sc2c1`, for which the XC50 stood at 1120 nM.
In turn, `Cc1cc(=NN=Cc2ccccc2Cl)c2cc(F)ccc2[nH]1` returned an XC50 of 750 nM.
With `CCCCNC(=O)[C@H](Cc1ccccc1)NC(=O)c1ccc(O)c(-c2ccc(Cl)c(Cl)c2)c1`, the XC50 was 527 nM.
`COc1ccccc1-c1cc(C(=O)N2CCN(S(=O)(=O)c3ccc(C)cc3)CC2)[nH]n1` displayed an XC50 of 1160 nM.
On to `Cc1cc(OCCCN2CCCCC2)ccc1NC(=O)COc1ccc(Cl)cc1C(=O)c1cc(Cl)cc(C#N)c1`, for which the XC50 was determined as 892 nM.
The same measure for `CCCCCN1CCCC1CNS(=O)(=O)c1cccc(C(=O)Nc2cccc(C#N)c2)c1` (centres undefined): 978 nM.
On to `CCC[C@@H]([C@@H](CC(C)C)C(=O)N[C@@H](CCCCNC(=O)c1ccccn1)C(=O)Nc1nccs1)N(O)C=O`, for which the XC50 worked out at 46.6 nM.
The result for `COc1ccc(CNc2nccc3ccc(-c4ccc5nccn5c4)cc23)cc1` reads 882 nM; that for `COc1ccc(C(=O)NC2CCN(c3ccnc4cc(Cl)ccc34)C2)cc1` (centres undefined), 231 nM.
In turn, `Cc1cccc2nc(-c3ccc(-c4cccc(NC(=O)C(C)CN(C)C)c4)s3)[nH]c12` (centres undefined) had an XC50 of 724 nM.
In turn, `COc1ccc(-c2cccc(NC(=O)c3cccc(C#N)c3)c2)cc1CN(C)CCO` gave an XC50 of 823 nM.
On to `CCOc1ccccc1C(=O)Nc1cccc(-c2nc3ncccn3c2C)c1`, for which the XC50 amounted to 846 nM.
The compound `O=C(CN1CCN(S(=O)(=O)C=Cc2ccccc2)CC1)Nc1cc(C(F)(F)F)ccc1Cl` gave an XC50 of 776 nM.
The same measure for `CNCCNCc1cccc(-c2ccc(-c3nc4cc(C(F)(F)F)ccc4[nH]3)cc2)c1`: 693 nM.
Consider `CC1CCC(C[C@@H](C(=O)N[C@H](C(=O)Nc2nccs2)[C@@H](C)O)[C@H](CCC(F)(F)F)N(O)C=O)CC1` (some centres undefined), for which the XC50 stood at 535 nM.
In turn, `Cc1cc(N[C@@H](CC(C)C)C(=O)NC2CCCC2)nc(NCCc2ccc(F)cc2)n1` returned an XC50 of 794 nM.
The same measure for `O=C(Nc1ccc(Cl)cc1)Nc1ccc(-c2cccc(-c3nc4ccccc4[nH]3)c2)cc1`: 157 nM; for `O=C(Nc1ccc(N2CCCCC2)c(Cl)c1)c1ccco1`: 409 nM.
`Cc1noc(C)c1C(=O)N1CCc2cc3nccc(N4CCN5CCC[C@H]5C4)c3cc21` showed an XC50 of 874 nM.
Compound `CCCCC(NCC)c1ccc(OCCOc2ccc(C(CCCC)NCC)cc2)cc1` (centres undefined) displayed an XC50 of 930 nM.
In turn, `NCC1(c2nc(-c3ccc(Cl)c(O)c3)c(-c3ccncc3)[nH]2)CCCCC1` gave an XC50 of 744 nM.
